{"source": "patent US9284325B2", "about": "“Spectinamides as anti-tuberculosis agents” (UNIVERSITY OF TENNESSEE RESEARCH FOUNDATION, priority 2009, dated 2016)", "system": "M. tuberculosis drug-resistant strains and mutants", "format": "cell-based, Mycobacterium tuberculosis", "note": "Where a name gives a salt, the structure may show the parent alone.", "data": [{"compound": "CN[C@@H]1[C@H](O)[C@H](NC)C2O[C@]3(O)C(OC2[C@H]1O)O[C@H](C)C[C@H]3NC(=O)Cc1ccccn1", "note": "(stereo partly drawn) [Compound 1329, 3′-Dihydro-3′-deoxy-4(R)-(pyridin-2yl)acetylamino spectinomycin Dihydrochloride]", "values": [{"measurement": "cross resistance with first-line TB drugs isoniazid, rifampicin and ethambutol", "result": "no cross resistance"}, {"measurement": "susceptibility of spontaneous streptomycin mutants incl. ATCC 35820", "result": "highly susceptible"}, {"measurement": "Activity (MIC) of 1329 compared to streptomycin", "setting": "Dihydrochloride", "result": ">200"}]}]}
